# Laboratory results as given in patent US20170305922A1, “CARM1 INHIBITORS AND USES THEREOF” (Epizyme, Inc., priority 2014, published 2017).
# Key:
# [1] = target: T1, Human CARM1 (PRMT4) (Homo sapiens, UniProt Q86X55); assay: CARM1 enzyme assay on peptide substrates (3H-SAM Flashplate); conditions: Biochemical assay; CARM1 0.25 nM, 3H-SAM 30 nM, peptide 250 nM; read-out: Biochem IC50
# T1 construct: Flag-CARM1-His was eluted with 200 ug/ml FLAG peptide in buffer A; made in house; host or cells: HEK 293F cells infected with recombinant baculovirus (pFastBacMam)
# T1 sequence (Q86X55 1-585 isoform Q86X55-1): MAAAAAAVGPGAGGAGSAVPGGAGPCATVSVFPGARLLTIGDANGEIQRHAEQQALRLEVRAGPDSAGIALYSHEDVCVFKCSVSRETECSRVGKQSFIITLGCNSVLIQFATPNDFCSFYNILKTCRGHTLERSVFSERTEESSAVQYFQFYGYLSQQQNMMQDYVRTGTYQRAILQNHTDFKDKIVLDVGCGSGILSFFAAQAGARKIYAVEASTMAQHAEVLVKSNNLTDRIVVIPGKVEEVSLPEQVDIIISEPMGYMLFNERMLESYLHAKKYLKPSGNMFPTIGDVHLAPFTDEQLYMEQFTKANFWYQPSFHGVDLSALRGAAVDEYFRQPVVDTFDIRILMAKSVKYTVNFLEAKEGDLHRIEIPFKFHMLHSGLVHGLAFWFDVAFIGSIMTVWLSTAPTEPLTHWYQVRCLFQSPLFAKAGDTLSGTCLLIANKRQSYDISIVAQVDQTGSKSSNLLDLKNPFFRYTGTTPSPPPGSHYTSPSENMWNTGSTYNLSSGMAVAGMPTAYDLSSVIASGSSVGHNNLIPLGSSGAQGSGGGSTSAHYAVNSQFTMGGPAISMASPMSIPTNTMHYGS
# [2] = system: asymmetric di-methyl PABP1 in RKO cells; assay: RKO methylation assay: In Cell Western (ICW) for asymmetric di-methyl PABP1 (PABP1me2a); conditions: Homo sapiens, RKO, 48 h, Cellular-based (PABP1me2a) ICW (In Cell Western) assay
# Outline: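 In-cell western on compound-exposed RKO cells (48 hours): asymmetric di-methyl PABP1 detected by antibody at 800 nm, DNA content by DRAQ5 at 700 nm. Percent inhibition from signal ratios against DMSO (minimum) and 20 μM reference compound (maximum) wells; IC50 curves fitted from triplicates.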
SMILES,IC50 [1] [nM],IC50 [2] [nM]
CNC[C@@H](O)COc1ccc(Cl)c(-c2nc(-c3c(C)noc3C)c(C)c(N3Cc4ccncc4C3C)n2)c1 (stereo partly drawn) [Example 124],5.2,175
CNC[C@@H](O)COc1ccc(Cl)c(-c2nc(-c3c(C)noc3C)c(C)c(N3Cc4cnn(C5COC5)c4C3)n2)c1 [Example 125],6.5,150
CNC[C@@H](O)COc1ccc(Cl)c(-c2nc(-c3c(C)noc3C)c(C)c(N3Cc4cn(C5COC5)nc4C3)n2)c1 [Example 126],6.2,157
CNC[C@@H](O)COc1ccc(Cl)c(-c2nc(-c3c(C)noc3C)c(C)c(N3Cc4cnc(OCC(F)F)nc4C3)n2)c1 [Example 127],7.8,32
CNC[C@@H](O)COc1ccc(Cl)c(-c2nc(-c3c(C)noc3C)c(C)c(N3CC4(CCC(OCCOC)CC4)C3)n2)c1 [Example 128],16.3,99
CNC[C@@H](O)COc1ccc(Cl)c(-c2nc(-c3c(C)noc3C)c(C)c(N3Cc4cn(C)nc4C3)n2)c1 [Example 129],7.7,46
CNC[C@@H](O)COc1ccc(Cl)c(-c2nc(-c3c(C)noc3C)c(C)c(N3C[C@H]4C[C@@H]3CN4C(=O)OC)n2)c1 [Example 130],5.9,960
CNC[C@@H](O)COc1ccc(Cl)c(-c2nc(-c3c(C)noc3C)c(C)c(N3C[C@H]4C[C@@H]3CN4CC(F)F)n2)c1 [Example 131],9,612
CNC[C@@H](O)COc1ccc(Cl)c(-c2nc(-c3c(C)noc3C)c(C)c(N3CC4(CC(OC(C)C)C4)C3)n2)c1 [Example 133],9.9,42
CNC[C@@H](O)COc1ccc(Cl)c(-c2nc(-c3c(C)noc3C)c(C)c(N3CC4(CC(OCC(F)F)C4)C3)n2)c1 [Example 134],8.5,45
CNC[C@@H](O)COc1ccc(Cl)c(-c2nc(-c3c(C)noc3C)c(C)c(N3Cc4cnn(C5CCOCC5)c4C3)n2)c1 [Example 135],4.6,93
CNC[C@@H](O)COc1ccc(Cl)c(-c2nc(-c3c(C)noc3C)c(C)c(N3Cc4cn(C5CCOCC5)nc4C3)n2)c1 [Example 136],5.1,172
CNC[C@@H](O)COc1ccc(Cl)c(-c2nc(-c3c(C)noc3C)c(C)c(N3C[C@@H]4C[C@H]3CN4CC(F)F)n2)c1 [Example 137],8,311
CNC[C@@H](O)COc1ccc(Cl)c(-c2nc(-c3c(C)noc3C)c(C)c(-n3cc4c(n3)CN(C(=O)OC)C4)n2)c1 [Example 139],5.2,131
CNC[C@@H](O)COc1ccc(Cl)c(-c2nc(-c3c(C)noc3C)c(C)c(N3CC4(CC(F)C4)C3)n2)c1 [Example 140],4.2,241
CNC[C@@H](O)COc1ccc(Cl)c(-c2nc(-c3c(C)noc3C)c(C)c(N3CC4(CC(Cl)C4)C3)n2)c1 [Example 141],3.7,173
CNC[C@@H](O)COc1ccc(Cl)c(-c2nc(-c3c(C)noc3C)c(C)c(N3Cc4cnc(C)cc4[C@@H]3C)n2)c1 [Example 142],3.6,65
CNC[C@@H](O)COc1ccc(Cl)c(-c2nc(-c3c(C)noc3C)c(C)c(N3Cc4cnc(N5CC(F)(F)C5)nc4C3)n2)c1 [Example 143],2.8,15
CNC[C@@H](O)COc1ccc(Cl)c(-c2nc(-c3c(C)noc3C)c(C)c(N3Cc4cnc(N5CCOCC5)nc4C3)n2)c1 [Example 144],3.3,22
CNC[C@@H](O)COc1ccc(Cl)c(-c2nc(-c3c(C)noc3C)c(C)c(N3Cc4cnc(N5CC(F)C5)nc4C3)n2)c1 [Example 145],2,15
CNC[C@@H](O)COc1ccc(Cl)c(-c2nc(-c3c(C)c(Cl)nn3C)c(C)c(N3Cc4cnc(N5CC(F)(F)C5)nc4C3)n2)c1 [Example 146],2.7,26
